Source: PMC5902495, “Synthesis of Symmetrical Tetrameric Conjugates of the Radiolanthanide Chelator DOTPI for Application in Endoradiotherapy by Means of Click Chemistry” (Frontiers in Chemistry, 2018)
Several values for one entry are separate records, joined by “and”; a condition that tells them apart may be missing. Equal entries are not always repeated. Where two headings read alike, the source gives them in different places. Marks after values point to notes of the source that are not given here. Each block holds one compound with its values, some of them ahead of it.

Experiments:
[1] = design: method as in Chaves et al., [1992]; conditions: ref Chaves et al., [1992]; cited from earlier work
[2] = cited from earlier work
[3] = cited from earlier work; remark: listed apart in the source
[4] = 25°C, cited from earlier work
[5] = 25°C, cited from earlier work; remark: listed apart in the source
[6] = Protonation constants of ligands by pH-potentiometry; format: physicochemical; conditions: 25°C, I = 0.15 M NaCl
Excerpt: (§1) For determining the protonation constants of DOTPI(Chx)4 and DOTPI three parallel pH-potentiometric titration were made with 0.2 M NaOH in 0.002 M ligand solutions. The stability and protonation constants of the Ca^II and Zn^II complexes formed with DOTPI(Chx)4 and DOTPI ligands have been determined by direct pH-potentiometric titration made at 1:1 and 2:1 metal to ligand concentration ratios. (the concentration of ligands was 0.002 M). For the calculation of the logKML and logKMLHi values, the mL base—pH data used were obtained in the pH range 1.7–12.0.
(§2) For pH measurements and titrations, a Metrohm 785 DMP Titrino titration workstation and a Metrohm-6.0233.100 combined electrode were used. Equilibrium measurements were carried out at a constant ionic strength (0.15 M NaCl) in 6 mL samples at 25°C. The solutions were stirred, and constantly purged with N2. The titrations were performed in a pH range of 1.7–11.7. KH-phthalate (pH = 4.005) and borax (pH = 9.177) buffers were used to calibrate the pH meter. For calculation of [H^+] from measured pH values, the method proposed by Irving et al. was used (Irving et al., [1967]). A 0.01 M HCl solution was titrated with the standardized NaOH solution in the presence of 0.1 M NaCl. Differences between the measured (pHread) and calculated pH (–log[H^+]) values were used to obtain the equilibrium H^+ concentration from the pH values, measured in the titration experiments. For the equilibrium calculations, the stoichiometric water ionic product (pKw) is also needed to calculate [H^+] values in basic conditions. The VNaOH – pHread data pairs of the HCl – NaOH titration obtained in the pH range 10.5–12 have been used to calculate the pKw value (pKw = 13.85). For the calculation of the equilibrium constants the program PSEQUAD (Zekany and Nagypal, [1985]) was used.
(§3) 2. Protonation and complexation equilibria of DOTPI and
(§4) The protonation processes of the DOTPI and DOTPI(Chx)4, ligands have been studied by pH-potentiometry. The protonation constants (logKiH) of ligands are defined according to Eq. (1).
(§5) The stability and protonation constants of DOTPI and DOTPI(Chx)4 complexes with several metal ions were determined by pH-potentiometric and UV/Vis spectrophotometric, methods.
(§6) The stability and protonation constants of the metal complexes formed with the DOTPI and DOTPI(Chx)4, ligands, defined by Eqs. […]
(§7) where i = 1, 2, 3…5. The KML and KMHiL values characterizing the formation of DOTPI and DOTPI(Chx)4 complexes of CaII and ZnII have been calculated from the pH-potentiometric titration data obtained at 1:1 metal to ligand concentration ratios. The protonation constants of the complexes Cu(DOTPI) and Cu(DOTPI( Chx)4) were also determined by pH-potentiometric titrations, made at 1:1 metal to ligand concentration ratio. The pH-potentiometric titrations of DOTPI ligand were also performed at 2:1 metal-to-ligand ratio in order to examine the possible formation of dinuclear CaII-, ZnII-, and CuII-DOTPI complexes.
(§8) The stability and protonation constants of the dinuclear complexes formed with the DOTPI […]
(§9) where i=1 and 2. In calculating the equilibrium constants, the best fit of the mL base – pH data was obtained by assuming the formation of ML, MHL, MH 2L, MH3L, MH4L, MH5L, M2L, M2LH, and M2LH2 complexes with DOTPI and DOTPI(Chx)4.
(§10) (also on this page, place not known: ]H][LH[ ]LH[K 1i iH + − = DOTPI( Chx)4 f ormed ]L][M[ ]ML[K ML = ]H][LMH[ ]LMH[K 1i i LMHi + − = i 3 …5. Ca II Zn II -potentiometric pH - metal -to-ligand Cu II-DOTPI ]M][ML[ ]LM[K 2 LM2 = ]H][LHM[ ]LHM[K 1i2 i2 LHM i2 + − = pH MH 4L,) […]

[7] = Stability and protonation constants of Cu^II complexes (spectrophotometry, pH-potentiometry); format: physicochemical; conditions: 25°C
Experimental: Stability constant of Cu(DOTPI) complex was determined by spectrophotometry, studying the Cu^II-DOTPI systems at the absorption band of Cu^II-complex at [H^+] = 0.01– 0.2 M over the wavelength range of 400–800 nm. Concentrations of Cu^II and DOTPI were 1 mM. The H^+ concentration in the samples was adjusted by addition of calculated amounts of 2.0 M HCl, while ionic strength was not constant in these samples. Samples were kept at 25°C for a week. Absorbance values were determined at 9 wavelengths (550, 575, 600, 625, 650, 675, 700, 725, and 750 nm). For calculation of stability and protonation constants of Cu(DOTPI), molar absorptivities of CuCl2, and Cu(HxL) species (wherein x = 0, 1, 2 …5) were determined by recording the spectra of 1.0 × 10^−3, 2.0 × 10^−3 and 3.0 × 10^−3 M solutions of CuCl2 and Cu(DOTPI) in the pH range of 1.7–11.7. The protonation constants of the complexes Cu(DOTPI) and the stability and protonation constants of the dinuclear Cu2(DOTPI) complexes were determined by pH-potentiometric titrations, made at 1:1 and 2:1 metal to ligand concentration ratios.
The stability constant of the Cu(DOTPI(Chx)4) complex has been determined by spectrophotometry with the use of competition reactions between DOTPI(Chx)4 and EDTA for the Cu^2+ at pH = 5.0. The concentration of Cu(EDTA) was 0.2 mM, while that of the DOTPI(Chx)4 was varied between 0.1 and 1.0 mM (5 samples). The samples were kept at 25°C for 2 weeks. The absorbance values and the molar absorptivities of CuCl2, Cu(DOTPI(Chx)4), and Cu(EDTA) have been determined at 11 wavelength (300, 304, 308, 312, 316, 320, 324, 328, 332, 336, and 340 nm) values between 300 and 340 nm. The molar absorptivities of CuCl2, Cu(DOTPI(Chx)4), and Cu(EDTA) were deteremined in 0.05, 0.1, 0.2, 0.3, and 0.4 mM solutions. The absorbance and pH values were determined in the samples after the equilibrium was reached (the time needed to reach the equilibria was determined by spectrophotometry). The spectrophotometric measurements were made with the use of 1.0 cm cells with a Cary 1E spectrophotometer at 25°C. The protonation constants of Cu(DOTPI(Chx)4) complex were determined by pH-potentiometric titrations at 1:1 metal to ligand molar ratio.
as §2, with “The VNaOH – pHread data pairs of the HCl – NaOH titration obtained in the pH range 10.5–12 have been used to calculate the pKw value (pKw = 13.85).” left out
as §3, §4, §5
The stability and protonation constants of the metal complexes formed with the DOTPI and […]

[8] = Stability and protonation constants of Zn^II complexes (pH-potentiometry); format: physicochemical; conditions: 25°C
Excerpt: as §1, §2, §3, §4, §5, §6, §7, §8, §9, §10

[9] = Stability and protonation constants of Ca^II complexes (pH-potentiometry); format: physicochemical; conditions: 25°C, I = 0.15 M NaCl, potentiometry
Excerpt: as §1, §2, §3, §4, §5, §6
as §7, with “The pH-potentiometric titrations of DOTPI ligand were also performed at 2:1 metal-to-ligand ratio in order to examine the possible formation of dinuclear CaII-, ZnII-, and CuII-DOTPI complexes.” left out

[10] = 25°C, I = 0.15 M NaCl, ref Baranyai et al., [2010]
[11] = I = 0.15 M NaCl, ref Takács et al., [2014]
[12] = 25°C, I = 0.1 M KNO3, ref Bazakas and Lukeš, [1995], Kotková et al., [2009]
[13] = 25°C, I = 0.1 M KNO3, ref Lázár et al., [1991]
[14] = I = 0.1 M KNO3, ref Baranyai et al., [2007]
[15] = I = 0.1 M KNO3, ref Desreux et al., [1981]

SMILES: O=C([O-])CN1CCN(CC(=O)O)CCN(CC(=O)O)CCN(CC(=O)O)CC1.[Na+] [[Na(DOTA)]^3−]
- logKNaL [1]: 4.38

SMILES: O=C(O)CN1CCN(CC(=O)O)CCN(CC(=O)O)CCN(CC(=O)O)CC1 [DOTA, 1,4,7,10-tetraazacyclododecane-1,4,7,10-tetraacetic acid]
- log K1H [2, 10]: 9.14
- log K2H [2, 10]: 9.21
- log K3H [2, 10]: 4.48
- log K4H [2, 10]: 4.03
- log K5H [2, 10]: 1.99
- log K6H [2, 10]: 1.58
- Σlog KiH (total basicity) [2, 10]: 30.43
- protonation constant CuH2L ([3]; 25°C, 0.15 M NaCl): 3.41 (1)
- protonation constant CuH3L ([3]; 25°C, 0.15 M NaCl): 0.83 (2)
- protonation constant CuHL ([3]; 25°C, 0.15 M NaCl): 4.08 (1)
- logKML, CuL ([3]; 25°C, I = 0.15 M NaCl, ref Takács et al., [2014]): 21.97 (1)
- protonation constant ZnH2L ([4]; 0.15 M NaCl): 3.40 (1)
- protonation constant ZnHL ([4]; 0.15 M NaCl): 4.16 (2)
- logKML, ZnL [4, 11]: 17.35 (1)
- protonation constant CaHL ([5]; 0.15 M NaCl): 3.90 (2)
- logKML, CaL [5, 11]: 13.84 (1)

SMILES: O=C([O-])CN(CCN(CC(=O)[O-])CC(=O)[O-])CC(=O)[O-].[Cu+2] [Cu(EDTA), reference compound]
- stability constant of the Cu(EDTA) complex ([3]; taken from the literature): 19.05

- log K1H [6]: 9.89 (1)
- log K2H [6]: 7.73 (1)
- log K3H [6]: 3.34 (1)
- Σlog KiH (total basicity) ([6]; distant carboxylate groups of DOTPI not considered): 20.96
- protonation constant CuH2L ([7]; 0.15 M NaCl): 1.55 (2)
- protonation constant CuHL ([7]; 0.15 M NaCl): 2.46 (1)
- logKML, CuL ([7]; I = 0.15 M NaCl, UV/Vis spectroscopy): 20.42 (1)^a
- protonation constant ZnHL ([8]; 0.15 M NaCl): 2.44 (8)
- logKML, ZnL ([8]; I = 0.15 M NaCl, potentiometry): 15.13 (1)^b
- logKML, CaL [9]: 8.99 (2)^b
SMILES: O=C(CCP(=O)(O)CN1CCN(CP(=O)(O)CCC(=O)NC2CCCCC2)CCN(CP(=O)(O)CCC(=O)NC2CCCCC2)CCN(CP(=O)(O)CCC(=O)NC2CCCCC2)CC1)NC1CCCCC1 [DOTPI(Chx)4]

SMILES: O=C(O)CN(CCN(CC(=O)O)CC(=O)O)CC(=O)O [EDTA, ethylenediamine-tetraacetic acid]
- logK1H ([2]; taken from the literature): 9.43
- logK2H ([2]; taken from the literature): 6.12
- logK3H ([2]; taken from the literature): 2.85
- logK4H ([2]; taken from the literature): 2.18
- logK5H ([2]; taken from the literature): 1.77

SMILES: O=[PH](O)CN1CCN(C[PH](=O)O)CCN(C[PH](=O)O)CCN(C[PH](=O)O)CC1 [DOTP^H]
- log K1H [2, 12]: 10.41 and 10.58
- log K2H [2, 12]: 6.83 and 6.93
- log K3H [2, 12]: 1.97 and 1.90
- Σlog KiH (total basicity) [2, 12]: 19.21 and 19.41
- log K1H [2, 13]: 10.94
- log K2H [2, 13]: 8.24
- log K3H [2, 13]: 3.71
- Σlog KiH (total basicity) [2, 13]: 22.89
- logKML, CuL ([3]; 25°C, I = 0.1 M KNO3, ref Baranyai et al., [2007]): 18.03
- logKML, CuL ([3]; 25°C, I = 0.1 M KNO3, ref Desreux et al., [1981]): 19.59
- protonation constant ZnHL ([4]; 0.1 M KNO3): 2.62
- logKML, ZnL [4, 14]: 14.60
- logKML, ZnL [4, 15]: 15.80
- protonation constant CaHL ([5]; 0.1 M KNO3): 3.94
- logKML, CaL [5, 14]: 9.46
- logKML, CaL [5, 15]: 9.39
